What all share (type): cell-based, human
For one data set, the system named is mRNA TYRP1. In words: qRT-PCR mRNA expression of TYRP1. The following applies: MNT-1 cells, 50 nM mimetic, day 12, relative to cel-miR-239b, ΔΔCt. How it is done: (§1) 4×10^5 MNT-1 cells were seeded per well in a 6-well plate (#353046, Falcon) on day-1. On day 0, the cells were transfected with 50 nM of mimetic of the miRNAs (hsa-mir-137 # C-300604-07-005, hsa-mir-7 # C-300547-05-0005, hsa-mir-330-5p # C-301082-01-0005, negative control # NC-002000-01-05, Dharmacon), using 5 μL of Lipofectamine 2000 (#1668-019, Invitrogen). On day 1, the medium was changed. On day 3, the cells were trypsinized and seeded at 4×10^5 cells per well. On day 4, the cells were transfected again with 50 nM of mimetic of the miRNAs (see day 0). On day 5, the medium was changed. On day 7, the cells were trypsinized and seeded at 4×10^5 cells per well. On day 8, the cells were transfected with 50 nM of mimetic of the miRNAs (see day 0). On day 9, the medium was changed. On day 10, the cells were trypsinized and divided into two (from one by six wells to two by six wells). On day 12, one six-well plate was used for lysis of the RNA and the other for lysis of the proteins. As positive control of depigmentation, MNT-1 cells were incubated with 3.5 mM of kojic acid (Sigma K3125-5G) for 12 days. The cells were distributed as described and the kojic acid was renewed with the medium every 4 days. The percentage inhibition of the kojic acid is of the order of 10%. 700 μL of Qiazol lysis buffer (Qiagen) was added per well of a six-well dish after washing the cells twice with PBS. The total RNA was isolated using the miRNeasy Mini kit (Qiagen) according to the manufacturer's protocol. The total RNA was eluted in 30 μl of water without RNAse. The concentration of RNA was measured using the NanoVue spectrophotometer (GE Healthcare). 1 μg of total RNA was reverse-transcribed using the MLV RT-Enzyme system (Invitrogen) in 60 μL of reaction to produce the corresponding cDNA. […] The concentrations of primers and the sequences are given in Table 5 below: The relative quantity was evaluated using the ΔΔCt comparative method. Briefly, this method compares the quantity of expression of the target gene relative to an endogenous control TBP, within a sample for normalizing the expression. […]
On the technique in general: Real-time PCR tracks product formation cycle by cycle.

Another data set relates to mRNA MLANA. In words: qRT-PCR mRNA expression of MLANA. The note with it: MNT-1 cells, 50 nM mimetic, day 12, relative to cel-miR-239b, ΔΔCt. On the procedure: as §1
For a further data set, the system named is mRNA MITF-M. In words: qRT-PCR mRNA expression of MITF-M. The note with it: MNT-1 cells, 50 nM mimetic, day 12, relative to cel-miR-239b, ΔΔCt. How it is done:
as §1

In a further data set the test system is TYR proteins. Put plainly: Western blot of TYR protein. The note with it: MNT-1 cells, 50 nM mimetic, day 12. How it is done: (§2) 4×10^5 MNT-1 cells were seeded per well in a 6-well plate (#353046, Falcon) on day-1. On day 0, the cells were transfected with 50 nM of mimetic of the miRNAs (hsa-mir-137 # C-300604-07-005, hsa-mir-7 # C-300547-05-0005, hsa-mir-330-5p # C-301082-01-0005, negative control # NC-002000-01-05, Dharmacon), using 5 μL of Lipofectamine 2000 (#1668-019, Invitrogen). On day 1, the medium was changed. On day 3, the cells were trypsinized and seeded at 4×10^5 cells per well. On day 4, the cells were transfected again with 50 nM of mimetic of the miRNAs (see day 0). On day 5, the medium was changed. On day 7, the cells were trypsinized and seeded at 4×10^5 cells per well. On day 8, the cells were transfected with 50 nM of mimetic of the miRNAs (see day 0). On day 9, the medium was changed. On day 10, the cells were trypsinized and divided into two (from one by six wells to two by six wells). On day 12, one six-well plate was used for lysis of the RNA and the other for lysis of the proteins. As positive control of depigmentation, MNT-1 cells were incubated with 3.5 mM of kojic acid (Sigma K3125-5G) for 12 days. The cells were distributed as described and the kojic acid was renewed with the medium every 4 days. The percentage inhibition of the kojic acid is of the order of 10%. […] The concentration of proteins was determined with the BCA Protein Assay (ThermoFisher). […]
A general note: A western blot detects proteins with antibodies after separation by electrophoresis.

A further data set has as its system MITF. Put plainly: Western blot of MITF protein. The note with it: MNT-1 cells, 50 nM mimetic, day 12. On the procedure: as §2

Entries after “also recorded” stand apart in the source; their conditions may differ.

“hsa-miR-7: mimetic of miRNA hsa-mir-7 (Dharmacon C-300547-05-0005); mature hsa-miR-7-5p sequence SEQ ID NO: 2 (UGGAAGACUAGUGAUUUUGUUGU; commercial mimic, chemistry not given here; listed as Homo sapiens)”: in the data set with mRNA TYRP1 (listed as miR-7), the “levels of mRNA TYRP1” value is “appears to reduce; also recorded: slightly reduced”. Further, in the data set on mRNA MLANA (listed as miR-7), the “levels of mRNA MLANA” value was “appears to reduce; also recorded: slightly reduced”. Also, the “levels of mRNA MITF-M” value with mRNA MITF-M (listed as miR-7) is “appears to reduce; also recorded: slightly reduced”. The “content of TYR proteins (Western blot)” value in the data set with TYR proteins is “decreases”. Besides, in the data set on MITF, the “level of protein MITF (Western blot)” value is “decreases”.

Turning to “hsa-miR-137: mimetic of miRNA hsa-mir-137 (Dharmacon C-300604-07-005); mature sequence SEQ ID NO: 3 (UUAUUGCUUAAGAAUACGCGUAG; commercial mimic, chemistry not given here; listed as Homo sapiens)”, the entries for the “levels of mRNA TYRP1” value in the data set on mRNA TYRP1 and in the data set with mRNA TYRP1 (listed as miR-137) were “significantly reduced” and “considerably reduced”, respectively. Besides, the results for the “levels of mRNA MLANA” value in the data set with mRNA MLANA and in the data set with mRNA MLANA (listed as miR-137) were “significantly reduced” and “considerably reduced”, respectively. Also, the “levels of mRNA MITF-M” value with mRNA MITF-M is reported as “significantly reduced”; with mRNA MITF-M (listed as miR-137), “considerably reduced”. For the same substance, the “level of protein MITF (Western blot)” value with MITF is “eliminates”.

With “hsa-miR-330-5p: mimetic of miRNA hsa-mir-330-5p (Dharmacon C-301082-01-0005); mature sequence 5'-UCUCUGGGCCUGUGUCUUAGGC-3' (SEQ ID NO: 1) (UCUCUGGGCCUGUGUCUUAGGC; mimic duplex, passenger strand not given here; listed as Homo sapiens)”, the “content of TYR proteins (Western blot)” value in the data set with TYR proteins is given as “decreased”.

The values are drawn from patent US9410152B2, “Use of microrna molecules to influence skin pigmentation” (CHANEL PARFUMS BEAUTE, priority 2011, dated 2016).
